From publication PMC11323243, “Novel Inhibitors of SARS-CoV-2 RNA Identified through Virtual Screening” (Journal of Chemical Information and Modeling, 2024)
“Also recorded” adds a separate entry of the source.

tested on: Omicron (BA.1) SARS-CoV-2; experiment: Antiviral activity, plaque reduction assay on Vero E6 cells; type: cell-based; conditions: not given

| SMILES | antiviral activity against SARS-CoV-2 (in words) |
| --- | --- |
| OCC1CN(Cc2cc3c(cc2Cl)OCO3)CC1CN1CCOCC1 (centres unmarked) [Compound 178] | decrease in potency |
| OCC1CN(Cc2cc3c(cc2Cl)OCO3)CC1CN1CCCCCC1 (centres unmarked) [Compound 269] | retained activity against the wild-type virus albeit with reduced potency |
| Cc1cc2c(cc1CN1CC(CO)C(CN3CCOCC3)C1)OCCO2 (centres unmarked) [Compound 325] | did not inhibit wild-type virus; also recorded: loss of antiviral activity against SARS-CoV-2 |

same assay, conditions: Severe acute respiratory syndrome coronavirus 2, Vero C1008, 72 h; read-out: EC50, effective concentration inhibiting 50% of the virus

| SMILES | EC50 [µM] |
| --- | --- |
| OCC1CN(Cc2cc3c(cc2Cl)OCO3)CC1CN1CCOCC1 (centres unmarked) [Compound 178] | 103 |
| NCCc1ccc(CN2CCC(O)(c3cccc(C(F)(F)F)c3)CC2)cc1 [Compound 188] | 17.2 |
| Cc1cc2c(cc1CN1CC(CO)C(CN3CCCCCC3)C1)OCCO2 (centres unmarked) [Compound 194] | 28.9 |
| OC1CN(Cc2cccc3cc[nH]c23)CCN(c2ccncc2)C1 (centres unmarked) [Compound 229] | 26.8 |
| OCC1CN(Cc2cc3c(cc2Cl)OCO3)CC1CN1CCCCCC1 (centres unmarked) [Compound 269] | 53.9 |
| CN(C)CCN(C)CC1CN(Cc2ccc3c(c2)OCCO3)CC1CO (centres unmarked) [Compound 570] | 38.5 |
| Cc1cc2c(cc1CN1CC(CO)C(CN3CCN(C)CC3)C1)OCCO2 (centres unmarked) [Compound 782] | 4.07 |
| Cc1cc2c(cc1CN1CC(CO)C(CN3CCCC3)C1)OCO2 (centres unmarked) [Compound 789] | 44 |
| OC1CCCN(C2CCN(Cc3ncc[nH]3)CC2)C1 (centres unmarked) [Compound 21256088] | > 100 |
| Cc1nc(CN)cc(N2CCC(C(O)c3nccn3C)CC2)n1 (centres unmarked) [Compound 32807865] | > 100 |
| Clc1ccc2c(N3CCN(CCCN4CCN(c5ccnc6cc(Cl)ccc56)CC4)CC3)ccnc2c1 [piperaquine, reference compound] | 11.6 |
